Earlier results, collected in PubChem BioAssay AID1259409 (Chemical Carcinogenesis Research Information System (CCRIS), 2018).

System: rodent chemically induced tumor inhibition, incidence and multiplicity
Assay: CCRIS tumor inhibitor studies
Conditions: for tumour outcome (control, treated, inhibition, significance): Promoter: NONE USED

## O=[Se](O)O
Carcinogen: N,N-DIETHYLNITROSAMINE, 55-18-5, Dose [Inhibitor]: 0.1 MG 5/WK STARTING 10-15 D BEFORE CARCINOGEN TREATMENT AND CONTINUING FOR DURATION OF STUDY (STUDY DURATION: 26 WK), Route [Inhibitor]: INTRAPERITONEAL, Species: RAT, Strain/Sex: BDIV AND WISTAR/MALE, Target Tissue: Type of Lesion: LIVER: TUMOR, Dose [Carcinogen]: 100 MG/L IN DRINKING WATER DAILY FOR 5 MO
  tumour outcome (control, treated, inhibition, significance): 18/19 (95%), 14/17 (82%), 14%, not calculated
Carcinogen: N,N-DIETHYLNITROSAMINE, 55-18-5, Dose [Inhibitor]: 1 MG/L IN DRINKING WATER DAILY STARTING 10-15 D BEFORE CARCINOGEN TREATMENT AND CONTINUING FOR DURATION OF STUDY (STUDY, Route [Inhibitor]: ORAL, Species: RAT, Strain/Sex: BDIV AND WISTAR/MALE, Target Tissue: Type of Lesion: LIVER: TUMOR, Dose [Carcinogen]: 80 MG/KG BW IN 0.2 ML 0.9% SALINE 1/WK FOR 10 WK
  tumour outcome (control, treated, inhibition, significance): 17/20 (85%), 15/20 (75%), 12%, not calculated
Carcinogen: N,N-DIETHYLNITROSAMINE, 55-18-5, Dose [Inhibitor]: 5 MG/L IN DRINKING WATER DAILY STARTING 10-15 D BEFORE CARCINOGEN TREATMENT AND CONTINUING FOR DURATION OF STUDY (STUDY, Route [Inhibitor]: ORAL, Species: RAT, Strain/Sex: BDIV AND WISTAR/MALE, Target Tissue: Type of Lesion: LIVER: TUMOR, Dose [Carcinogen]: 80 MG/KG BW IN 0.2 ML 0.9% SALINE 1/WK FOR 10 WK
  tumour outcome (control, treated, inhibition, significance): 15/16 (94%), 17/18 (94%), 0%, not calculated
Carcinogen: N,N-DIETHYLNITROSAMINE, 55-18-5, Dose [Inhibitor]: 10 MG/L IN DRINKING WATER DAILY STARTING 10-15 D BEFORE CARCINOGEN TREATMENT AND CONTINUING FOR DURATION OF STUDY (STUDY, Route [Inhibitor]: ORAL, Species: RAT, Strain/Sex: BDIV AND WISTAR/MALE, Target Tissue: Type of Lesion: LIVER: TUMOR, Dose [Carcinogen]: 80 MG/KG BW IN 0.2 ML 0.9% SALINE 1/WK FOR 10 WK
  tumour outcome (control, treated, inhibition, significance): 15/16 (94%), 9/13 (69%), 27%, not calculated
Carcinogen: N,N-DIETHYLNITROSAMINE, 55-18-5, Dose [Inhibitor]: 10 MG/L IN DRINKING WATER DAILY STARTING 10-15 D BEFORE CARCINOGEN TREATMENT AND CONTINUING FOR DURATION OF STUDY (STUDY, Route [Inhibitor]: ORAL, Species: RAT, Strain/Sex: BDIV AND WISTAR/MALE, Target Tissue: Type of Lesion: LIVER: TUMOR, Dose [Carcinogen]: 100 MG/L IN DRINKING WATER DAILY FOR 5 MO
  tumour outcome (control, treated, inhibition, significance): 18/19 (95%), 15/16 (94%), 1%, not calculated
Carcinogen: N-METHYL-N'-NITRO-N-NITROSOGUANIDINE, 70-25-7, Dose [Inhibitor]: 10 MG/L IN DRINKING WATER DAILY STARTING 15 D BEFORE CARCINOGEN TREATMENT AND CONTINUING FOR DURATION OF STUDY (STUDY DU, Route [Inhibitor]: ORAL, Species: RAT, Strain/Sex: BDIV AND WISTAR/MALE, Target Tissue: Type of Lesion: STOMACH: TUMORS, Dose [Carcinogen]: 250 MG/KG BW PULSED DOSE IN 2 ML CORN OIL ONCE
  tumour outcome (control, treated, inhibition, significance): 18/25 (72%), 12/35 (75%), -4%, not calculated
Carcinogen: N-METHYL-N-NITRO-N'-NITROSO-GUANIDINE [70-25-7], Dose [Inhibitor]: 0, 2, 4 MG/L FOR 1 WK PRIOR TO CARCINOGEN (STUDY DURATION: 43 WKS), Dose [Inhibitor]: 0, 2, 4 MG/L FOR 1 WK PRIOR TO CARCINOGEN (STUDY DURATION: 43 WKS), Route [Inhibitor]: DRINKING WATER, Species: RAT, Strain/Sex: WISTAR/MALE, Target Tissue: Type of Lesion: LEIOMYOMA, Dose [Carcinogen]: 20 MG/KG BW DAILY FOR 10 D
  outcome: 23%; 47%, -104%; 43%, -87%
Carcinogen: N-METHYL-N-NITROSOUREA, 684-9-35, Dose [Inhibitor]: 4 PPM IN DRINKING WATER DAILY FOR 10 MO STARTING SIMULTANEOUSLY WITH CARCINOGEN TREATMENT (STUDY DURATION: 10 MO), Route [Inhibitor]: ORAL, Species: RAT, Strain/Sex: WE/MALE, Target Tissue: Type of Lesion: BRAIN AND SPINAL CORD: NEOPLASM, Dose [Carcinogen]: 20 MG/KG BW ONCE EVERY 4 WK FOR 40 WK
  tumour outcome (control, treated, inhibition, significance): 6/15 (40%), 9/16 (56%), -40%, not significant
Carcinogen: N-METHYL-N-NITROSOUREA, 684-9-35, Dose [Inhibitor]: 4 PPM IN DRINKING WATER DAILY FOR 10 MO STARTING SIMULTANEOUSLY WITH CARCINOGEN TREATMENT (STUDY DURATION: 10 MO), Route [Inhibitor]: ORAL, Species: RAT, Strain/Sex: WE/MALE, Target Tissue: Type of Lesion: FORESTOMACH: NEOPLASM, Dose [Carcinogen]: 20 MG/KG BW ONCE EVERY 4 WK FOR 40 WK
  tumour outcome (control, treated, inhibition, significance): 14/15 (93%), 16/16 (100%), -8%, not significant
Carcinogen: N-METHYL-N-NITROSOUREA, 684-9-35, Dose [Inhibitor]: 4 PPM IN DRINKING WATER DAILY FOR 10 MO STARTING SIMULTANEOUSLY WITH CARCINOGEN TREATMENT (STUDY DURATION: 10 MO), Route [Inhibitor]: ORAL, Species: RAT, Strain/Sex: WE/MALE, Target Tissue: Type of Lesion: MAMMARY GLAND: NEOPLASM, Dose [Carcinogen]: 20 MG/KG BW ONCE EVERY 4 WK FOR 40 WK
  tumour outcome (control, treated, inhibition, significance): 3/15 (20%), 4/16 (25%), -25%, not significant
Carcinogen: N-METHYL-N-NITROSOUREA, 684-9-35, Dose [Inhibitor]: 4 PPM IN DRINKING WATER DAILY FOR 10 MO STARTING SIMULTANEOUSLY WITH CARCINOGEN TREATMENT (STUDY DURATION: 10 MO), Route [Inhibitor]: ORAL, Species: RAT, Strain/Sex: WE/MALE, Target Tissue: Type of Lesion: PERIPHERAL NERVES: NEOPLASM, Dose [Carcinogen]: 20 MG/KG BW ONCE EVERY 4 WK FOR 40 WK
  tumour outcome (control, treated, inhibition, significance): 3/15 (20%), 8/16 (50%), -150%, not significant
Carcinogen: N-METHYL-N-NITROSOUREA, 684-93-5, Dose [Inhibitor]: 1 MG IN DIET DAILY STARTING AT AGE 5 WK 2 WK PRIOR TO FIRST CARCINOGEN TREATMENT AND CONTINUING FOR DURATION OF STUDY (S, Route [Inhibitor]: ORAL, Species: HAMSTER, Strain/Sex: SYRIAN/MALE, Target Tissue: Type of Lesion: TRACHEA: CARCINOMA, Dose [Carcinogen]: 0.5% SOLUTION (PH 5) 1/WK FOR 12 WK
  tumour outcome (control, treated, inhibition, significance): 9/34 (26%), 8/33 (24%), 8%, not significant
Carcinogen: N-METHYL-N-NITROSOUREA, 684-93-5, Dose [Inhibitor]: 1 MG IN DIET DAILY STARTING AT AGE 5 WK 2 WK PRIOR TO FIRST CARCINOGEN TREATMENT AND CONTINUING FOR DURATION OF STUDY (S, Route [Inhibitor]: ORAL, Species: HAMSTER, Strain/Sex: SYRIAN/MALE, Target Tissue: Type of Lesion: TRACHEA: NEOPLASM, Dose [Carcinogen]: 0.5% SOLUTION (PH 5) 1/WK FOR 12 WK
  tumour outcome (control, treated, inhibition, significance): 11/34 (32%), 9/33 (27%), 16%, not significant
Carcinogen: N-METHYL-N-NITROSOUREA, 684-93-5, Dose [Inhibitor]: 1 MG/KG IN DIET DAILY STARTING 7 D AFTER CARCINOGEN TREATMENT AND CONTINUING FORDURATION OF STUDY (STUDY DURATION: 120 D, Route [Inhibitor]: ORAL, Species: RAT, Strain/Sex: SPRAGUE-DAWLEY/FEMALE, Target Tissue: Type of Lesion: MAMMARY GLAND: ADENOCARCINOMA, Dose [Carcinogen]: 35 MG/KG BW IN 0.9% SALINE ONCE AT 50 D OF AGE
  tumour outcome (control, treated, inhibition, significance): 68%, 68%, 0%, not calculated
Carcinogen: N-METHYL-N-NITROSOUREA, 684-93-5, Dose [Inhibitor]: 5 MG IN DIET DAILY STARTING AT AGE 5 WK 2 WK PRIOR TO FIRST CARCINOGEN TREATMENT AND CONTINUING FOR DURATION OF STUDY (S, Route [Inhibitor]: ORAL, Species: HAMSTER, Strain/Sex: SYRIAN/MALE, Target Tissue: Type of Lesion: TRACHEA: CARCINOMA, Dose [Carcinogen]: 0.5% SOLUTION (PH 5) 1/WK FOR 12 WK
  tumour outcome (control, treated, inhibition, significance): 9/34 (26%), 10/31 (32%), -23%, not significant
